Reference: patent US6518246B1, “Pharmaceutical composition and method for the treatment of neoplastic cells” (priority 2001, dated 2003)

How the values were obtained:
[1] = tested on: rat colonic cancer cells; settings: in vivo; cited from earlier work
[2] = tested on: N-methyl-N′-nitroguanidine-induced rat colonic adenocarcinoma; assay: Apoptosis by in situ hybridisation, apoptotic index, Example 1; assay type: in vivo, nude mice (C57BL/6JBom-nu); settings: single substance 10 μg/kg, five days; for Apoptotic index, second in situ hybridisation kit (mean±SD): controls 3.5±0.6, P=0.15; for Apoptotic index, first in situ hybridisation kit: vs controls, P=0.2
Description: (§1) The animals were divided into two groups of 10 mice each. The first group received s.c. injections of 100 μl saline solution containing a mixture of octreotide (Sandostatin®, Novartis), galanin (synthetic human galanin, Sigma, Stockholm), and serotonin (5-hydroxytryptamine, oxalate salt, Sigma) at 10 μg/kg body weight each. Injections were administered every 12 hours for five days. The second group served as controls and received only saline solution. Thirty-two mice were implanted with the tumour as described above and left for seven days. After measuring the tumour diameter, the animals were divided into four groups of eight. The first group was injected with 100 μl saline solution, the second with 100 μl saline solution containing 10 μg/kg body weight octreotide, the third group with 100 μl saline solution containing 10 μg/kg body weight galanin, and the last group was injected with 100 μl saline solution containing 10 μg/kg bodyweight serotonin. Injections were administered every 12 hours for five days.
(§2) At the end of the experiments, the animals were weighed and then decapitated. The tumours were dissected carefully and their diameters and weight were determined. Three tissue samples cut perpendicular to the surface were taken from each tumour, two from the periphery and one from the middle. The tissue samples were fixed overnight in 4% buffered paraformaldehyde, embedded in paraffin wax, and cut at 5 μm.
Apoptosis was detected by in situ hybridisation using two different kits (TA200 and TA5411) from R&D Systems Inc (Minneapolis, Minn. USA). Both kits detect DNA fragmentation, but with two different detection approaches. In the first kit, fragments of DNA were detected by incorporating modified nucleotides at the 3′OH ends of the fragments, using terminal deoxynucleotidyl transferase (TdT). The incorporated 5-bromodeoxyuridine (BrdU) was detected by a biotinylated anti-BrdU antibody. A streptavidin-conjugated horsradish peroxidase specifically bound to the biotinylated antibody. In the second kit, TdT added biotinylated nucleotides to the 3′OH ends of the DNA fragments. Again, a streptavidin-conjugated horseradish peroxidase specifically bound to the biotinylated DNA fragments. The peroxidase in both kits was detected by diaminobenzidine tetrahydrochloride (DAB). The sections were counter-stained with methyl green. […]
Apoptotic index was determined using the unbiased counting frames (as described in detail previously), adapted to computer image analysis (Palmqvist et al., 1998). […] About 40 fields from each tumour, spread randomly in sections from the three tissue samples, were measured. For each tumour about 200 positive and 200 negative nuclei were counted. The labelling index (LI) was calculated as follows: […]

[3] = tested on: N-methyl-N′-nitroguanidine-induced rat colonic adenocarcinoma; assay: Tumour volume and wet weight, Example 1; assay type: in vivo, nude mice (C57BL/6JBom-nu); settings: single substance 10 μg/kg body weight every 12 hours for five days, vs controls; for tumour volume: P=0.4; for tumour weight: P=0.8
Description: (§3) Female nude mice (C57BL/6JBom-nu, Bomholtgård Breeding and Research Centre, Denmark), 8 weeks old, with a mean body weight of 22.9 g (range 20.4-25.5), were used in this investigation. The mice were kept one to each cage in a laminar filtered airflow cabinet under pathogen-free conditions. The animals were kept under a constant temperature (22±2° C.) and relative humidity (55±5%), with 12 h dark/light cycles. They were fed on a standard pellet diet (R 34, Lactamin, Vadstena, Stockholm) and given water ad libitum. All experiments were performed by aseptic techniques under laminar airflow.
Twenty mice were injected s.c. with 100 μl cell suspension containing 2×10^6 viable cells of an N-methyl-N′-nitroguanidine-induced rat colonic adenocarcinoma (provided kindly by Professor L.-O. Hafström, Departnent of Surgery, University Hospital, Umeå, Sweden). After seven days, the greatest and least diameters of the tumours were measured and the volume was calculated with the use of the following formula:
volume=(mean diameter)^333 π/6.
as §1, §2

[4] = tested on: N-methyl-N′-nitroguanidine-induced rat colonic adenocarcinoma; assay: Proliferation (PCNA immunostaining), proliferation index, Example 1; assay type: in vivo, nude mice (C57BL/6JBom-nu); settings: single substance 10 μg/kg, five days; vs controls, P=0.8
Description: (§4) The animals were divided into two groups of 10 mice each. The first group received s.c. injections of 100 μl saline solution containing a mixture of octreotide (Sandostatin®, Novartis), galanin (synthetic human galanin, Sigma, Stockholm), and serotonin (5-hydroxytryptamine, oxalate salt, Sigma) at 10 μg/kg body weight each. Injections were administered every 12 hours for five days. The second group served as controls and received only saline solution. Thirty-two mice were implanted with the tumour as described above and left for seven days. After measuring the tumour diameter, the animals were divided into four groups of eight. […]
At the end of the experiments, the animals were weighed and then decapitated. The tumours were dissected carefully and their diameters and weight were determined. […]
To detect proliferation, the sections from the tumour tissue samples from all the animals were immnmostained with the avidin-biotin-complex (ABC) method (Dakopatts, Glostrup, Denmark), as described in detail earlier (E1-Salhy et al., 1993). […] Peroxidase was detected by immersing the sections in 50 ml Tris-buffer containing 25 mg diaminobenzidine tetrahydrochloride (DAB) and 10 μl of 30% H2O2 followed by slight counter-staining in Mayer's haematoxylin. […] The proliferating index was determined as described for apoptosis.

[5] = tested on: asymptomatic advanced colon carcinoma; settings: about 7 μ/kg/d; patients; cited from earlier work
[6] = Deaths of animals during treatment, Example 1; assay type: in vivo, nude mice (C57BL/6JBom-nu); settings: single substance 10 μg/kg every 12 hours; dissection: metastasis / abdominal carcinosis
Description: as §3, §4

Row | Compound | mitotic rate of rat colonic cancer cells [1] | Apoptotic index, second in situ hybridisation kit (mean±SD) [2] | Apoptotic index, first in situ hybridisation kit [2] | tumour volume [3] | tumour weight [3] | tumour proliferation index [4] | progression of the disease [5] | deaths during the experiment [6]
1 | NCCc1c[nH]c2ccc(O)cc12 [serotonin, 5-hydroxytryptamine] | increase | 4±0.5 | no difference | no significant difference | no significant difference | Neither was there any difference | – | –
2 | octreotide | – | 3±1.1 | no difference | no significant difference | no significant difference | Neither was there any difference | no effect | –
3 | CC(C)C[C@H](NC(=O)CNC(=O)[C@H](CC(N)=O)NC(=O)[C@H](CCCCN)NC(=O)[C@H](CC(=O)O)NC(=O)[C@H](CO)NC(=O)[C@H](Cc1ccccc1)NC(=O)[C@H](CO)NC(=O)[C@H](CCCNC(=N)N)NC(=O)[C@H](Cc1cnc[nH]1)NC(=O)[C@H](CC(N)=O)NC(=O)CNC(=O)[C@@H](NC(=O)[C@H](C)NC(=O)[C@H](Cc1cnc[nH]1)NC(=O)[C@@H]1CCCN1C(=O)CNC(=O)[C@H](CC(C)C)NC(=O)[C@H](CC(C)C)NC(=O)[C@H](Cc1ccc(O)cc1)NC(=O)CNC(=O)[C@H](C)NC(=O)[C@H](CO)NC(=O)[C@H](CC(N)=O)NC(=O)[C@H](CC(C)C)NC(=O)[C@@H](NC(=O)[C@H](Cc1c[nH]c2ccccc12)NC(=O)CN)[C@@H](C)O)C(C)C)C(=O)N[C@H](C(=O)N[C@@H](CO)C(=O)O)[C@@H](C)O [galanin] | – | – | – | – | – | – | – | Two mice in the group treated with galanin died
